Test results from US10072161B2, “Polyamide nanoparticles and uses thereof” (Bar-Ilan University, priority 2014, dated 2018).

Columns and labels:
E. coli [1] = experiment: Bacterial killing kinetics in the presence of antioxidants; type: cell-based, Escherichia coli; settings: 10 mM antioxidant, 1 h pre-incubation
Method: (§1) Cultures of E. coli and S. aureus bacteria grown overnight were diluted in fresh twofold concentrated LB medium to obtain stock solutions with a final working concentration of 10^5 CFU/ml. […] Bacteria supplemented with distilled water or the various antioxidants served as negative controls. At various time points, 100 μl samples were taken from each tube and transferred into the first row wells of a 96-well plate containing 20 μl of 0.1 N thiosulfate. The latter was added to quench the remaining chlorine on the P(MAA-MBAA)-Cl NPs and NaOCl, thus terminating the sterilization process. Serial dilutions were carried out and the cells spotted onto LB agar plates, which were incubated at 37° C. for 20 h. Cell growth was monitored and determined by a viable cell count.

S. aureus [2] = experiment: as above; type: cell-based, Staphylococcus aureus; settings: 10 mM antioxidant, 1 h pre-incubation
Method: as §1

[3] = ESR spin trapping (DMPO) of ROS; settings: 10 mM antioxidant
Method: ROS production was detected using the ESR spin trapping technique coupled with a spin trap 5,5-Dimethyl-pyrroline N-oxide (DMPO, Sigma, St. Louis, Mo.). Typically, the aqueous suspensions of NPs were added to DMPO (0.01 M), in the presence of equivalent volumes of either twofold concentrated LB medium, or each of its components (Tryptone, yeast extract, NaCl) or water. […] The solution was drawn into a 0.8 mm ID capillary quartz tube sealed at both ends with a plastic Critoseal (Thermo Fisher Scientific Inc), which was placed into a quartz tube that in turn was placed into the EPR rectangular cavity (ER 4122SHQ). The measurements were taken using a X-band Elexsys E500 EPR spectrometer (Bruker, Karlsruhe, Germany) using the following parameters: microwave power, 20 mW; scan width, 100 G; resolution, 1024; Gain, 60; sweep time, 60 s; # scans, 2; modulation frequency, 100 kHz; modulation amplitude, 1 G. In order to compare the radical intensity, the double integration (DI) of the spin adduct signal was calculated, using the Xepr 2.6b.58 acquisition version.

E. coli [4] = experiment: Consecutive bacterial loading cycles (hourly, 8 cycles); type: cell-based, Escherichia coli
Method: (§2) The cell density of E. coli and S. aureus grown overnight was normalized to 2*10^5 cells per milliliter in a twofold concentrated LB medium; then the bacteria were treated for 1 h at 37° C. under agitation (250 rpm) with equivalent volumes of either NaOCl or P(MAA-MBAA)-Cl NPs. Bacteria shaken with water served as a negative control. After 1 h of incubation, aliquots were collected and diluted serially tenfold before spotting onto LB agar plates. After an overnight incubation at 37° C. the colony forming units (CFU) were counted and used to determine cell survival. Immediately after each aliquot was removed, newly prepared bacteria were added for another hour to each of the tubes to achieve a final concentration of 10^5 CFU/ml.

S. aureus [5] = experiment: as above; type: cell-based, Staphylococcus aureus
Method: as §2

[6] = Kinetics of oxidative chlorine release in LB medium (NaI quenching, 292/350 nm); type: physicochemical; settings: for % chlorinated: 1 day in LB
Method: Equal volumes of NaOCl or P(MAA-MBAA)-Cl NPs were incubated with equivalent volumes of twofold concentrated LB medium. The precise concentration of the oxidative chlorine found on the two reagents was determined at different time intervals via quenching with sodium iodide followed by spectrophotometer (Amersham Bioschiences) measurements at wavelengths of 292 nm and 350 nm, as previously described.
Equal volumes of NaOCl or P(MAA-MBAA)-Cl NPs were incubated with equivalent volumes of twofold concentrated LB medium. The precise concentration of the oxidative chlorine found on the two reagents was determined at different time intervals via quenching with sodium iodide followed by spectrophotometer (Amersham Bioschiences) measurements at wavelengths of 292 nm and 350 nm.

[7] = system: Staphylococcus aureus (S. aureus) FRF1169; experiment: Minimum inhibitory concentration (MIC) assay in LB, 96-well, OD595; type: cell-based; settings: 10^5 CFU/mL
Method: (§3) In exemplary procedures, Escherichia coli (E. coli) C600, Staphylococcus aureus (S. aureus) FRF1169, and multi-drug resistant strains E. coli 5327752, Klebsiella pneumoniae 5363271, and Providencia stuartii 5327311 were grown overnight at 37° C. under agitation (250 rpm) in Luria Bertani (LB, Difco) growth medium.
(§4) In exemplary procedures, the antimicrobial activity of the P(MAA-MBAA)-Cl nanoparticles was evaluated by determining the minimum inhibitory concentration (MIC) values for both E. coli and S. aureus. The MIC was defined as the lowest Cl concentration bound to the nanoparticles, or the NaOCl, at which no bacterial growth was visible following incubation with the respective bacteria. The stock solution of the P(MAA-MBAA)-Cl nanoparticles and NaOCl were each diluted in two-fold serial dilutions in a 96-well plate (Griener Bio-one) ranging from bound Cl concentrations of 10 to 0.08 mM (approximately corresponding to 0.8% P(MAA-MBAA)-Cl, w/v) in LB medium in a 96-well plate (Greiner Bio-one). Each well contained 10^5 colony-forming units (CFU)/mL of either E. coli or S. aureus, and bacteria were either treated with P(MAA-MBAA) nanoparticles or left untreated to serve as negative controls. The bacterial growth was monitored via absorbance measurements at OD595 utilizing a microplate reader (Synergy 2, BioTek instruments). All experiments were conducted in triplicate.

[8] = system: Escherichia coli (E. coli) C600; experiment: as above; type: cell-based; settings: 10^5 CFU/mL
Method: as §3, §4

S. aureus [9] = experiment: Stability in organic rich media (LB pre-incubation, then bacterial loading); type: cell-based, Staphylococcus aureus
Method: (§5) 1 ml of either DDW, NaOCl or P(MAA-MBAA)-Cl NPs was mixed with 1 ml of twofold concentrated LB medium and incubated for 3 h, 5 h or 24 h. Then, E. coli or S. aureus were added to each of the solutions, reaching a final concentration of 10^5 CFU/ml and the mixture agitated for either 3 h or 24 h. At the indicated time points, samples were taken for cell viability determination and the solutions were reloaded with freshly prepared bacteria. The experiment was continued until the reagents were no longer capable of evincing toxic effects on the tested bacteria.

E. coli [10] = experiment: as above; type: cell-based, Escherichia coli
Method: as §5

S. aureus [11] = experiment: Bacterial killing / killing kinetics, viable cell count (CFU/mL); type: cell-based, Staphylococcus aureus
Method: as §3
(§6) In exemplary procedures, overnight cultures of E. coli and S. aureus bacteria were each diluted in a fresh LB medium to obtain stock solutions with a working concentration of 10^5 CFU per mL. Next, E. coli and S. aureus bacteria were grown, […] with equivalent volumes of either NaOCl, P(MAA-MBAA) or P(MAA-MBAA)-Cl nanoparticles (0.2%, 0.75%, and 1% w/v) under continuous agitation (250 rpm). At various time points, 100 μL samples were taken from each tube and transferred into the wells of the first row in a 96-well plate that contained 20 μL of 0.1 N sodium thiosulfate. The latter was added to quench the remaining Cl on the P(MAA-MBAA)-Cl nanoparticles, thus halting the reaction. Serial dilutions were carried out, and the cells were spotted onto LB agar plates, followed by incubation at 37° C. for 20 hours. Cell growth was monitored and determined by viable cell count and expressed as CFU/mL.
(§7) Cultures of E. coli and S. aureus bacteria grown overnight were diluted in fresh twofold concentrated LB medium to obtain stock solutions with a final working concentration of 10^5 CFU/ml. Then, E. coli and S. aureus bacteria were grown with either P(MAA-MBAA)-Cl NPs or NaOCl under continuous agitation (250 rpm). Bacteria grown with distilled water or P(MAA-MBAA) NPs served as negative controls. At various time points, 100 μl samples were taken from each tube and transferred into the first row wells of a 96-well plate containing 20 μl of 0.1 N thiosulfate. The latter was added to quench the remaining chlorine on the P(MAA-MBAA)-Cl NPs and NaOCl, thus terminating the sterilization process. […] Cell growth was monitored and determined by a viable cell count.

E. coli [12] = experiment: as above; type: cell-based, Escherichia coli
Method: as §3, §6, §7

[13] = pre-incubated for 1 week with LB
[14] = 10^5 CFU/ml in LB, NPs versus NaOCl

CC(=O)N[C@@H](CS)C(=O)O [NAC, N-acetyl cysteine]
effect of antioxidant pre-incubation on killing by the chlorinated NPs (E. coli [1]): abolished the killing properties of the NPs
effect of antioxidant pre-incubation on killing by the chlorinated NPs (S. aureus [2]): abolished the killing properties of the NPs
effect on formation of DMPO-OH by P(MAA-MBAA)-Cl NPs with LB [3]: completely abrogated

OCl [NaOCl, sodium hypochlorite]
bacterial viability after overnight incubation following the eighth loading cycle (E. coli [4]): no viable E. coli bacteria
loading cycle from which no longer able to promote bacterial killing (E. coli [4]): 4 cycle
bacterial viability after overnight incubation following the eighth loading cycle (S. aureus [5]): able to overcome the growth inhibitory affect
loading cycle from which no longer able to promote bacterial killing (S. aureus [5]): 2 cycle
NaOCl molecules sequestered by organic substances ([6]; 10 minutes of incubation in LB): ~50%
% chlorinated ([6]; measured at 292 nm): 0.9%
% chlorinated ([6]; measured at 350 nm): 0.5%
minimum inhibitory concentration (MIC) [7]: 5.6 mM oxidative Cl
minimum inhibitory concentration (MIC) [8]: 5.6 mM oxidative Cl
effect of pre-incubation with LB on bactericidal activity (S. aureus [9]; 3 h pre-incubation): did compromise its bactericidal activity
time to complete killing (S. aureus [9]; 3 h pre-incubation with LB): 24 h
effect of pre-incubation with LB on bactericidal activity (S. aureus [9]; 5 h pre-incubation): growth arrest
effect of pre-incubation with LB on bactericidal activity (S. aureus [9]; 24 h pre-incubation): destroyed its antibacterial activity
concentration required to kill bacteria (S. aureus [9]; [13]): 0.36 M
killing at 0.18 M (S. aureus [9]; [13]): ineffective
effect of pre-incubation with LB on bactericidal activity (E. coli [10]; 3 h pre-incubation): had no impact on their bactericidal activity
effect of pre-incubation with LB on bactericidal activity (E. coli [10]; 5 h pre-incubation): growth inhibition
time to complete killing (E. coli [10]; 5 h pre-incubation with LB): 24 h
reduction of bacteria viability (E. coli [10]; 5 h pre-incubation with LB, 3 h time point): ~4 logs
effect of pre-incubation with LB on bactericidal activity (E. coli [10]; 24 h pre-incubation): destroyed its antibacterial activity
concentration required to kill bacteria (E. coli [10]; [13]): 0.36 M
killing at 0.18 M (E. coli [10]; [13]): ineffective
bacterial killing (S. aureus [11]; 8 mM oxidative chlorine): Total kill
bacterial killing (S. aureus [11]; 11 mM oxidative chlorine): Total kill
time to eradication of bacteria (S. aureus [11]; [14]): ≤ 2 min
bacterial killing (E. coli [12]; 8 mM oxidative chlorine): Total kill
bacterial killing (E. coli [12]; 11 mM oxidative chlorine): Total kill
time to eradication of bacteria (E. coli [12]; [14]): ≤ 2 min

O=C1O[C@H]([C@@H](O)CO)C(O)=C1O [AA, Ascorbic acid]
effect of antioxidant pre-incubation on killing by the chlorinated NPs (E. coli [1]): abolished the killing properties of the NPs
effect of antioxidant pre-incubation on killing by the chlorinated NPs (S. aureus [2]): abolished the killing properties of the NPs
